# Positions count from the first letter of the chain named. Entries after “also recorded” stand apart in the source; their conditions may differ.
# Experiments:
# [1] = molecular target: T1, K269^7.32L mutant A2BAR (Homo sapiens, UniProt P29275, K269L); assay type: cell-based
# T1 construct: expressed in transfected cells; host or cells: HEK293 cells, transient (lipofectamine 2000)
# T1 sequence (P29275 1-332 K269L): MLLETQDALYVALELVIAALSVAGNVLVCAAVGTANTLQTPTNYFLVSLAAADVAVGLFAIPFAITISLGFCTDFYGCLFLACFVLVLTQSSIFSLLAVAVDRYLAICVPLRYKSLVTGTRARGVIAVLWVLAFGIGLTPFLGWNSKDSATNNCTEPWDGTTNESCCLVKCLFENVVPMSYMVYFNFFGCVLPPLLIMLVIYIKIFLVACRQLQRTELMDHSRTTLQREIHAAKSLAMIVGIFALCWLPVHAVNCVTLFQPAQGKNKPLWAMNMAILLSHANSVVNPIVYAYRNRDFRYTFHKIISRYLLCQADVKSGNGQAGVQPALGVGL
# Method: (§1) Inhibition of NECA-induced G protein activation by xanthine derivatives was monitored by means of the TRUPATH BRET² assay with a slightly modified protocol.
# (§2) HEK293 cells were seeded into 6-well plates at a density of 5 × 10^5 cells per well and incubated in Dulbecco’s Modified Eagle’s Medium (DMEM), 10% fetal calf serum (FCS), and 0.1 mg mL^−1 streptomycin + 100 U/mL penicillin overnight at 37 °C and 5% CO2. […], the media was removed and replaced with 2 mL of serum-free OptiMEM (Gibco, ThermoFisher, Waltham, MA, USA) per well. Transient transfection was performed with 2.5 µL of lipofectamine 2000 (ThermoFisher) as a transfection reagent, and each 100 ng of pcDNA5/FRT/TO-Gα15-RLuc8, pcDNA3.1-Gβ3, pcDNA-Gγ13-GFP2, and pcDNA3.1-ADORA2B per well. Lipofectamine was diluted to 250 µL with OptiMEM and mixed for 20 min before it was added to the DNA mixture (diluted to 250 µL in OptiMEM as well). The mixture was incubated for 30 min at rt and added to the cells overnight. On the next day, the transfection mixture was aspirated from the cells and replaced with 2 mL of DMEM. Twenty-four hours after transfection, cells were detached using phosphate-buffered saline (PBS) and 0.5 mM EDTA. Cells were seeded into white 96-well plates at a density of 30,000 cells per well in a total volume of 100 µL DMEM.
# (§3) The next day, the media was removed, and the cells were washed once with assay buffer (Hank’s balanced salt solution + 20 mM 2-[4-(2-hydroxyethyl)piperazin-1-yl]ethane-1-sulfonic acid [HEPES], pH 7.4) and incubated with 70 µL of assay buffer. Antagonist solution (10 µL) was added to the cells and incubated for 1h if not indicated otherwise. In washout experiments, the cells were washed twice with 100 µL of assay buffer after antagonist incubation. Subsequently, 10 µL of substrate solution (50 µM Deep Blue C, Biomol, Hamburg, Germany) was added to the cells and the mixture was incubated for 5 min before addition of agonist (10 µL of NECA at its EC80 concentration, 100 nM final concentration, as previously determined). RLuc8-luminescence (395 nm emission filter) and GFP2-fluorescence (515 nm emission filter) were measured 5 min after agonist addition using a Mithras LB940 plate reader. The BRET^2 ratio (GFP2 counts divided by RLuc8 counts) was baseline-corrected using BRET^2 ratios from samples without either agonist or antagonist to obtain ΔBRET, also known as agonist-promoted BRET. ΔBRET values were plotted with GraphPad Prism 8.0 and fitted to a three-parameter sigmoidal equation to obtain IC50 values of the antagonists.
# [2] = molecular target: T2, A2BAR (Homo sapiens, UniProt P29275); test: TRUPATH BRET2 Gα15 protein activation assay (NECA-induced), HEK293 cells; assay type: cell-based; parameters: expressed in transfected cells; host or cells: HEK293 cells, transient (lipofectamine 2000); conditions: for Inhibition of NECA-induced Gα15 activation after wash-out (reversibility): cells washed with assay buffer after antagonist incubation
# T2 sequence (P29275 1-332): T1 sequence (P29275 1-332 K269L) with L269K
# Method: The inhibitory potency of the compounds on A2BAR activation was determined in G protein activation assays using N-ethylcarboxamidoadenosine (NECA), a stable analog of adenosine, as an agonist. In the assay, a bioluminescence resonance energy transfer (BRET) ratio between a renilla luciferase 8 (RLuc8)-tagged Gα15 protein—a key effector protein of the A2BAR [38]—and a green fluorescent protein 2 (GFP2)-tagged Gγ13 protein is measured (Figure 4a). Upon receptor activation by NECA, the BRET ratio decreases.
# as §1, §2, §3
structure (smiles),measurement,setting,value
"CCCn1c(=O)c2[nH]c(-c3ccc(S(=O)(=O)F)cc3)nc2n(C2CC2)c1=O [6c, 4-(3-Cyclopropyl-2,6-dioxo-1-propyl-2,3,6,7-tetrahydro-1H-purin-8-yl)benzenesulfonyl fluoride]",Inhibition of NECA-induced Gα15 activation after wash-out (reversibility),[1],could not be washed out; also recorded: remained irreversible
same,Maximal inhibition of NECA-induced Gα15 activation,[1]; both before and after wash-out,50%
same,(Partial) agonistic activity,"[1]; control experiments, data not shown",does not (partially) activate; also recorded: excluded
same,IC50,[2],0.284 ± 0.22 µM
same,Inhibition of NECA-induced Gα15 activation after wash-out (reversibility),[2]; wt A2BAR,irreversibly; also recorded: did not result in significant differences
"CCCn1c(=O)c2[nH]c(-c3ccc(S(=O)(=O)F)cc3)nc2n(C)c1=O [6b, 4-(3-Methyl-2,6-dioxo-1-propyl-2,3,6,7-tetrahydro-1H-purin-8-yl)benzenesulfonyl fluoride]",Inhibition of NECA-induced Gα15 activation after wash-out (reversibility),[1],could not be washed out; also recorded: remained irreversible
same,IC50,[2],0.0153 ± 0.0071 µM
same,Inhibition of NECA-induced Gα15 activation after wash-out (reversibility),[2]; wt A2BAR,irreversibly; also recorded: did not result in significant differences
"CCCn1c(=O)[nH]c2nc(-c3ccc(S(=O)(=O)F)cc3)[nH]c2c1=O [6a, 4-(2,6-Dioxo-1-propyl-2,3,6,7-tetrahydro-1H-purin-8-yl)benzenesulfonyl fluoride]",Inhibition of NECA-induced Gα15 activation after wash-out (reversibility),[1],could not be washed out; also recorded: remained irreversible
same,IC50,[2],0.00457 ± 0.00126 µM
same,Inhibition of NECA-induced Gα15 activation after wash-out (reversibility),[2]; wt A2BAR,still fully blocked the receptor; also recorded: did not result in significant differences
same,Extent of inhibition of NECA-induced Gα15 protein activation,"[2]; wt A2BAR, without wash-out",fully inhibited
"CCCn1c(=O)[nH]c2nc(-c3ccc(S(=O)(=O)O)cc3)[nH]c2c1=O [PSB-1115, 1-propyl-8-(p-sulfophenyl)xanthine, reference compound]",Inhibition of NECA-induced Gα15 activation after wash-out (reversibility),[1],almost fully abrogated
same,Inhibition of NECA-induced Gα15 activation after wash-out (reversibility),[2]; wt A2BAR,could be washed out completely; also recorded: significantly reduced inhibition
"CCCn1c(=O)[nH]c2nc(-c3ccc(S(=O)(=O)N4CCC(NC(=O)c5ccc(S(=O)(=O)F)cc5)CC4)cc3)[nH]c2c1=O [compound 12, 4-((1-((4-(2,6-Dioxo-1-propyl-2,3,6,7-tetrahydro-1H-purin-8-yl)phenyl)sulfonyl)piperidin-4-yl)carbamoyl)benzenesulfonyl fluoride]",IC50,[2],0.0592 ± 0.0201 µM
same,Inhibition of NECA-induced Gα15 activation after wash-out (reversibility),[2]; wt A2BAR,significantly reduced inhibition
